Experimental data: ChEMBL document CHEMBL3244272, “Folate antagonists. 15. 2,3-Diamino-6-(2-naphthylsulfonyl)quinazoline and related 2,4-diamino-6-[(phenyl and naphthyl)sulfinyl and sulfonyl]quinazolines, a potent new class of antimetabolites with phenomenal antimalarial activity” (J Med Chem, 1979)
Converted amounts (≈) assume the structure as drawn. The source made the active and inactive calls. The calls are words filed in the database; no cut-off is given here.

What was measured:
[1] = test system: Plasmodium berghei; assay: Antimalarial activity against trophozoite-induced Plasmodium berghei infected in mouse assessed as change in mean survival time at 20 mg/kg, sc single dose after 72 hrs of infection; type: functional; settings: route subcutaneous
[2] = test system: Enterococcus faecalis; assay: Antibacterial activity against Streptococcus faecalis MGH-2 assessed as growth inhibition; type: functional
[3] = test system: Shigella sonnei; assay: Antibacterial activity against Shigella sonnei C-10 assessed as growth inhibition; type: functional
[4] = test system: Plasmodium berghei; assay: Antimalarial activity against trophozoite-induced Plasmodium berghei infected in mouse assessed as change in mean survival time at 10 mg/kg, sc single dose after 72 hrs of infection; type: functional; settings: route subcutaneous
[5] = test system: Plasmodium gallinaceum; assay: Antimalarial activity against sporozoite-induced Plasmodium gallinaceum infected in chick assessed as change in cured at 120 mg/kg, sc single dose; type: functional; settings: route subcutaneous
[6] = test system: Plasmodium berghei; assay: Antimalarial activity against trophozoite-induced Plasmodium berghei infected in mouse assessed as change in mean survival time at 40 mg/kg, sc single dose after 72 hrs of infection; type: functional; settings: route subcutaneous
[7] = test system: Plasmodium berghei; assay: Antimalarial activity against trophozoite-induced Plasmodium berghei infected in mouse assessed as change in mean survival time at 1.25 mg/kg, sc single dose after 72 hrs of infection; type: functional; settings: route subcutaneous
[8] = test system: Plasmodium berghei; assay: Antimalarial activity against trophozoite-induced Plasmodium berghei infected in mouse assessed as change in mean survival time at 2.5 mg/kg, sc single dose after 72 hrs of infection; type: functional; settings: route subcutaneous
[9] = test system: Plasmodium gallinaceum; assay: Antimalarial activity against sporozoite-induced Plasmodium gallinaceum infected in chick assessed as change in cured at 60 mg/kg, sc single dose; type: functional; settings: route subcutaneous
[10] = test system: Plasmodium berghei; assay: Antimalarial activity against trophozoite-induced Plasmodium berghei infected in mouse assessed as change in mean survival time at 5 mg/kg, sc single dose after 72 hrs of infection; type: functional; settings: route subcutaneous
[11] = test system: Plasmodium gallinaceum; assay: Antimalarial activity against sporozoite-induced Plasmodium gallinaceum infected in chick assessed as change in cured at 30 mg/kg, sc single dose; type: functional; settings: route subcutaneous
[12] = test system: Pseudomonas aeruginosa; assay: Antibacterial activity against Pseudomonas aeruginosa 28 assessed as growth inhibition; type: functional
[13] = test system: Mycobacterium tuberculosis; assay: Antibacterial activity against Mycobacterium tuberculosis H37Rv assessed as growth inhibition; type: functional
[14] = test system: Plasmodium gallinaceum; assay: Antimalarial activity against sporozoite-induced Plasmodium gallinaceum infected in chick assessed as change in cured at 15 mg/kg, sc single dose; type: functional; settings: route subcutaneous
[15] = test system: Plasmodium berghei; assay: Antimalarial activity against trophozoite-induced Plasmodium berghei infected in sc dosed mouse assessed as minimum curative dose; type: functional
[16] = test system: Escherichia coli; assay: Antibacterial activity against Escherichia coli Vogel assessed as growth inhibition; type: functional
[17] = test system: Staphylococcus aureus; assay: Antibacterial activity against Staphylococcus aureus UC-76 assessed as growth inhibition; type: functional
[18] = test system: Staphylococcus aureus; assay: Antibacterial activity against Staphylococcus aureus S18713 assessed as growth inhibition; type: functional
[19] = test system: Plasmodium gallinaceum; assay: Antimalarial activity against sporozoite-induced Plasmodium gallinaceum infected in chick assessed as change in cured at 240 mg/kg, sc single dose; type: functional; settings: route subcutaneous
[20] = test system: Plasmodium falciparum; assay: Antimalarial activity against chloroquine-resistant, pyrimethamine-sensitive Plasmodium falciparum Vietnam Oak Knoll in Aotus monkey assessed as dose required to >50% cures compound treated for 7 days; type: functional
[21] = Toxicity in chloroquine-sensitive, pyrimethamine-resistant Plasmodium falciparum Malayan Camp CH/Q infected in Aotus monkey compound treated for 7 days; settings: in vivo
[22] = test system: Plasmodium vivax; assay: Antimalarial activity against Plasmodium vivax New Guinea Chesson in po once daily dosed Owl monkey assessed as curative dose compound treated for 7 days; type: functional
[23] = test system: Plasmodium falciparum; assay: Antimalarial activity against Plasmodium falciparum Vietnam Oak Knoll in po once daily dosed Owl monkey assessed as curative dose compound treated for 7 days; type: functional
[24] = test system: Plasmodium gallinaceum; assay: Antimalarial activity against cycloguanil-resistant Plasmodium gallinaceum infected in mouse assessed as dose required to suppress parasitemia by 90% compound treated through gavage for 3 days relative to parent strain; type: functional
[25] = test system: Gallus gallus; assay: Toxicity in trophozoite-induced Plasmodium gallinaceum infected in chick assessed as death at 5 mg/kg, sc single dose measured within 48 hrs; type: organism-based; parameters: dose 5 mg/kg, route subcutaneous; settings: chicken, in vivo
[26] = test system: Gallus gallus; assay: Toxicity in trophozoite-induced Plasmodium gallinaceum infected in chick assessed as death at 2.5 mg/kg, sc single dose measured within 48 hrs; type: organism-based; parameters: dose 2.5 mg/kg, route subcutaneous; settings: chicken, in vivo
[27] = test system: Plasmodium gallinaceum; assay: Antimalarial activity against trophozoite-induced Plasmodium gallinaceum infected in chick assessed as mean survival time at 40 mg/kg, sc single dose (reference value: 4 days); type: functional; settings: route subcutaneous
[28] = test system: Plasmodium gallinaceum; assay: Antimalarial activity against trophozoite-induced Plasmodium gallinaceum infected in chick assessed as mean survival time at 10 mg/kg, sc single dose (reference value: 4 days); type: functional; settings: route subcutaneous
[29] = test system: Plasmodium gallinaceum; assay: Antimalarial activity against trophozoite-induced Plasmodium gallinaceum infected in chick assessed as mean survival time at 1.25 mg/kg, sc single dose (reference value: 4 days); type: functional; settings: route subcutaneous
[30] = Antibacterial activity against Pediococcus cerevisiae assessed as growth inhibition; type: functional
[31] = test system: Plasmodium gallinaceum; assay: Antimalarial activity against trophozoite-induced Plasmodium gallinaceum infected in chick assessed as cured at 2.5 mg/kg, sc single dose; type: functional, organism-based; parameters: dose 2.5 mg/kg
[32] = test system: Plasmodium gallinaceum; assay: Antimalarial activity against trophozoite-induced Plasmodium gallinaceum infected in chick assessed as mean survival time at 2.5 mg/kg, sc single dose (reference value: 4 days); type: functional; settings: route subcutaneous
[33] = test system: Plasmodium falciparum; assay: Antimalarial activity against chloroquine-sensitive, pyrimethamine-resistant Plasmodium falciparum Malayan Camp CH/Q infected in Aotus monkey assessed as dose required to >50% cures compound treated for 7 days; type: functional
[34] = test system: Plasmodium gallinaceum; assay: Antimalarial activity against trophozoite-induced Plasmodium gallinaceum infected in chick assessed as cured at 40 mg/kg, sc single dose; type: functional, organism-based; parameters: dose 40 mg/kg
[35] = test system: Plasmodium gallinaceum; assay: Antimalarial activity against trophozoite-induced Plasmodium gallinaceum infected in chick assessed as mean survival time at 5 mg/kg, sc single dose (reference value: 4 days); type: functional; settings: route subcutaneous
[36] = test system: Plasmodium falciparum; assay: Antimalarial activity against Plasmodium falciparum Vietnam Smith in po dosed Owl monkey assessed as curative dose compound treated for 7 days in presence of 5 mg/kg sulfadiazine for 7 days; type: functional
[37] = test system: Plasmodium vivax; assay: Antimalarial activity against Plasmodium vivax VietnamPalo Alto in po dosed Owl monkey assessed as curative dose compound treated for 7 days in presence of 5 mg/kg sulfadiazine for 7 days; type: functional
[38] = test system: Lacticaseibacillus casei; assay: Antibacterial activity against Lactobacillus casei assessed as growth inhibition; type: functional, organism-based
[39] = test system: Gallus gallus; assay: Toxicity in trophozoite-induced Plasmodium gallinaceum infected in chick assessed as death at 20 mg/kg, sc single dose measured within 48 hrs; type: organism-based; parameters: dose 20 mg/kg, route subcutaneous; settings: chicken, in vivo
[40] = test system: Gallus gallus; assay: Toxicity in trophozoite-induced Plasmodium gallinaceum infected in chick assessed as death at 40 mg/kg, sc single dose measured within 48 hrs; type: organism-based; parameters: dose 40 mg/kg, route subcutaneous; settings: chicken, in vivo
[41] = test system: Plasmodium gallinaceum; assay: Antimalarial activity against trophozoite-induced Plasmodium gallinaceum infected in chick assessed as mean survival time at 20 mg/kg, sc single dose (reference value: 4 days); type: functional; settings: route subcutaneous
[42] = test system: Plasmodium falciparum; assay: Antimalarial activity against Plasmodium falciparum Malayan Camp CH/Q infected in po once daily dosed Owl monkey assessed as curative dose compound treated for 7 days; type: functional
[43] = test system: Enterococcus faecalis; assay: Antibacterial activity against Streptococcus faecalis assessed as growth inhibition; type: functional, organism-based
[44] = test system: Plasmodium falciparum; assay: Antimalarial activity against Plasmodium falciparum Vietnam Smith in po once daily dosed Owl monkey assessed as curative dose compound treated for 7 days; type: functional
[45] = test system: Plasmodium gallinaceum; assay: Antimalarial activity against trophozoite-induced Plasmodium gallinaceum infected in chick assessed as cured at 1.25 mg/kg, sc single dose; type: functional, organism-based; parameters: dose 1.25 mg/kg
[46] = test system: Plasmodium gallinaceum; assay: Antimalarial activity against trophozoite-induced Plasmodium gallinaceum infected in chick assessed as cured at 20 mg/kg, sc single dose; type: functional, organism-based; parameters: dose 20 mg/kg
[47] = test system: Plasmodium falciparum; assay: Antimalarial activity against Plasmodium falciparum Vietnam Oak Knoll in po dosed Owl monkey assessed as curative dose compound treated for 7 days in presence of 5 mg/kg sulfadiazine for 7 days; type: functional
[48] = test system: Plasmodium gallinaceum; assay: Antimalarial activity against cycloguanil-resistant Plasmodium gallinaceum infected in mouse assessed as dose required to suppress parasitemia by 90% compound treated through gavage for 3 days; type: functional
[49] = test system: Plasmodium vivax; assay: Antimalarial activity against Plasmodium vivax VietnamPalo Alto in po once daily dosed Owl monkey assessed as curative dose compound treated for 7 days; type: functional
[50] = test system: Gallus gallus; assay: Toxicity in trophozoite-induced Plasmodium gallinaceum infected in chick assessed as death at 1.25 mg/kg, sc single dose measured within 48 hrs; type: organism-based; parameters: dose 1.25 mg/kg, route subcutaneous; settings: chicken, in vivo
[51] = test system: Gallus gallus; assay: Toxicity in trophozoite-induced Plasmodium gallinaceum infected in chick assessed as death at 10 mg/kg, sc single dose measured within 48 hrs; type: organism-based; parameters: dose 10 mg/kg, route subcutaneous; settings: chicken, in vivo
[52] = Inhibition of Plasmodium berghei dihydrofolate reductase
[53] = test system: Plasmodium falciparum; assay: Antimalarial activity against Plasmodium falciparum Malayan Camp CH/Q infected in po dosed Owl monkey assessed as curative dose compound treated for 7 days in presence of 5 mg/kg sulfadiazine for 7 days; type: functional
[54] = test system: Plasmodium gallinaceum; assay: Antimalarial activity against trophozoite-induced Plasmodium gallinaceum infected in chick assessed as cured at 10 mg/kg, sc single dose; type: functional, organism-based; parameters: dose 10 mg/kg
[55] = test system: Plasmodium gallinaceum; assay: Antimalarial activity against trophozoite-induced Plasmodium gallinaceum infected in chick assessed as cured at 5 mg/kg, sc single dose; type: functional, organism-based; parameters: dose 5 mg/kg

Nc1nc(N)c2cc(S(=O)(=O)c3cc(Cl)cc(Cl)c3)ccc2n1
MST [1]: 9.7 days
MIC [2]: 1 µg/mL (≈ 2.71 µM)
MIC [3]: > 25 µg/mL
MST [4]: 6.9 days
MST [5]: 7 days
MST [6]: 11.3 days
MST [7]: 0.3 days
MST [8]: 0.7 days
MST [9]: 7 days
MST [10]: 5.9 days
MST [11]: 6.3 days
MIC [12]: > 25 µg/mL
MIC [13]: > 25 µg/mL
MST [14]: 2.2 days
MCD [15]: 160 mg/kg
MIC [16]: > 25 µg/mL
MIC [17]: 2.5 µg/mL (≈ 6.77 µM)
MIC [18]: 10 µg/mL (≈ 27.1 µM)
MST [19]: 7 days

CCc1nc(N)nc(N)c1-c1ccc(Cl)cc1 [PYRIMETHAMINE]
MST [1]: 7.7 days
MST [4]: 6.1 days
Activity [20]: 0.6 mg/kg
MST [7]: 3.1 days
MST [8]: 4.7 days
MST [10]: 5.3 days
MTD at 168 h [21]: > 2.5 mg/kg
CD90 [22]: 0.625 mg/kg
CD90 [23]: 0.15 mg/kg

Nc1nc(N)c2cc(S(=O)(=O)c3ccc4ccccc4c3)ccc2n1
fold change (FC) [24]: 0
Activity [25]: Toxic
Activity [26]: Toxic
MIC [2]: > 25 µg/mL
MST [27]: 20.4 days
MST [28]: 13 days
MIC [3]: > 25 µg/mL
Activity [20]: 0.025 mg/kg
MST [29]: 6 days
IC50 [30]: 0.00016 µg/mL (≈ 0.000457 µM)
MST [7]: 10.9 days
Activity [31]: Active
MST [32]: 8.8 days
Activity [33]: 0.39 mg/kg
Activity [34]: Active
MST [8]: 12.1 days
MST [35]: 11.8 days
MST [10]: 15.6 days
MIC [12]: > 25 µg/mL
CD90 [36]: 0.39 mg/kg
CD90 [37]: 0.098 mg/kg
IC50 [38]: 0.00014 µg/mL (≈ 0.0004 µM)
Activity [39]: Toxic
Activity [40]: Toxic
MIC [13]: > 25 µg/mL
MST [41]: 15 days
CD90 [42]: 0.39 mg/kg
IC50 [43]: 0.007 ng/mL (≈ 2e-05 µM)
CD90 [44]: >6.25 mg/kg
CD90 [22]: 0.39 mg/kg
Activity [45]: Active
Activity [46]: Active
CD90 [47]: 0.00156 mg/kg
Activity [48]: 2.4 mg/kg
MCD [15]: 20 mg/kg
CD90 [49]: 6.25 mg/kg
MIC [16]: > 25 µg/mL
MIC [17]: 25 µg/mL (≈ 71.3 µM)
Activity [50]: Toxic
MIC [18]: > 25 µg/mL
Activity [51]: Toxic
IC50 [52]: 2.4 nM
CD90 [53]: 0.025 mg/kg
Activity [54]: Active
Activity [55]: Active
CD90 [23]: 0.098 mg/kg
